Test results as given in US20260083865A1, “PROSTATE SPECIFIC MEMBRANE ANTIGEN (PSMA) LIGANDS AND USE THEREOF” (priority 2022, published 2026).
Where two headings read alike, the source gives them in different places. Numbered stars: 1 amine (or outer) side, 2 acyl side, 3 side chain; on linkers, the order of the positions; unused ones are H or OH. Bridge positions count the residues as written; N and C are the ends. Square brackets hold non-standard residues; d marks the D form. Peptide text beside a SMILES is read from it. * marks the point of attachment. NH(CH2)5NHDOTA = O=C(O)CN1CCN(CC(=O)O)CCN(CC(=O)NCCCCCN*)CCN(CC(=O)O)CC1; DOTA = O=C(O)CN1CCN(CC(=O)O)CCN(CC(=O)*)CCN(CC(=O)O)CC1; Tyr(3-I) = N[C@@H](Cc1ccc(O)c(I)c1)C(=O)O; Arg(Me) = CNC(=N)NCCC[C@H](N)C(=O)O; 2Pal = N[C@@H](Cc1ccccn1)C(=O)O; X1 = O=C(CC1CCN([*:1])CC1)[*:2]; Lys(Me) = CNCCCC[C@H](N)C(=O)O; dTle = CC(C)(C)[C@@H](N)C(=O)O; Tle = CC(C)(C)[C@H](N)C(=O)O; Nle = CCCC[C@H](N)C(=O)O; Aib = CC(C)(N)C(=O)O; X8 = O=C(CC1CCNCC1)*

Assays:
[1] = molecular target: T1, Fc-fusion protein of human PSMA (hPSMA-Fc) (Homo sapiens, UniProt Q04609); experiment: Surface plasmon resonance assay (Biacore T200, single cycle kinetic); assay type: binding; details: hPSMA-Fc, 25° C., read-out: pKD CAT (converted)
T1 construct: purchased Acro Biosystems PSA-H5264
T1 sequence (Q04609 44-750 limits assumed): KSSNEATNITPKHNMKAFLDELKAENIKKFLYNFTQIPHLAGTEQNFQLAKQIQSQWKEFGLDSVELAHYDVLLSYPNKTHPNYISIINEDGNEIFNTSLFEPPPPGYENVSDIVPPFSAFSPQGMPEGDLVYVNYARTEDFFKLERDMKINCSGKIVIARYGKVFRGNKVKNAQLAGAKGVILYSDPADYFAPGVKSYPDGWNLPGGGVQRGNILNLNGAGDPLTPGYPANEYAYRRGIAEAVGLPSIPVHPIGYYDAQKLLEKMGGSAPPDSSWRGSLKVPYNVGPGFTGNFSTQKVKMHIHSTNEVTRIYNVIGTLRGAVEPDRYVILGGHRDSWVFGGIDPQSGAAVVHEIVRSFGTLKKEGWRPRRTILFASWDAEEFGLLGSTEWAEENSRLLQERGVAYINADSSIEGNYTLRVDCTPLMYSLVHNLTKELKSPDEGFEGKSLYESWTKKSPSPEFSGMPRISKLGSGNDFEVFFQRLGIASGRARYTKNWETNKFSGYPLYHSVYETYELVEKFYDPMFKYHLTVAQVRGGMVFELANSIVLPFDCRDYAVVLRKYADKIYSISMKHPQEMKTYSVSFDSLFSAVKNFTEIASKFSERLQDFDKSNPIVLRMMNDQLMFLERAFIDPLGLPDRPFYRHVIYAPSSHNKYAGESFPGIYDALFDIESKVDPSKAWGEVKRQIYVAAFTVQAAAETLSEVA
Outline: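 hPSMA-Fc was captured (~1000 RU) on an Fc-binding-peptide CM5 chip, and compounds were run in single cycle kinetic mode at 25° C in HBST with 0.1% DMSO. Double-blank-corrected sensorgrams were fitted to a 1:1 Langmuir model to give KD, reported as pKD.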

[2] = molecular target: T2, PSMA-expressing C4-2 cells (Homo sapiens, UniProt Q04609); experiment: FACS binding assay (competition with 50 nM PSM-0183); details: read-out: pIC50 [C4-2] CAT (converted)
T2 construct: PSMA-expressing C4-2 cells (ATCC, Cat. No. CRL-3314) were cultured in RPMI-1640; host or cells: C4-2 cells
T2 sequence (Q04609 whole entry): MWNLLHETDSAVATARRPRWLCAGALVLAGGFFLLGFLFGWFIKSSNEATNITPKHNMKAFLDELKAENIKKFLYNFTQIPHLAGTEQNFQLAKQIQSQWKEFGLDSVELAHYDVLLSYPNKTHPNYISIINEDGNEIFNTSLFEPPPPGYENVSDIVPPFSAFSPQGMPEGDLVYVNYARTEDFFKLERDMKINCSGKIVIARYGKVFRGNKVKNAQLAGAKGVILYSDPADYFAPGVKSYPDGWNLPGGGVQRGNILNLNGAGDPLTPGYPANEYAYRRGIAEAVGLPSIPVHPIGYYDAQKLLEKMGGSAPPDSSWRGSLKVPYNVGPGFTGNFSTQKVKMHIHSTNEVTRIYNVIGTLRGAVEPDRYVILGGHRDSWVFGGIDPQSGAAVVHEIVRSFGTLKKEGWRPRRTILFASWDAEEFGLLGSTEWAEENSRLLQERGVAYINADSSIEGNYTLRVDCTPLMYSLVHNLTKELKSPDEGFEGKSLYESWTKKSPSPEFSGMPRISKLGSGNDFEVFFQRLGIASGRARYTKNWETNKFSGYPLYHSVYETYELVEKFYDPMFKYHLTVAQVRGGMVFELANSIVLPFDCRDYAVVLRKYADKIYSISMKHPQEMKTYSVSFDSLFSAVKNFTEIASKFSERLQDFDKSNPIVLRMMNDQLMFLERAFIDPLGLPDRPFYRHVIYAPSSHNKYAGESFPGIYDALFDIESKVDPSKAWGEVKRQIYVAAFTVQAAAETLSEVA
Outline: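 C4-2 cells were incubated 1 h at 4 °C with 50 nM AF488-labelled peptide PSM-0183 plus increasing test compound concentrations, then washed twice in ice-cold buffer. Median fluorescence in the AF488 channel was read by flow cytometry. IC50/pIC50 was derived by 4PL fitting of MFI versus concentration.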

[3] = SPR, single cycle kinetic, category
[4] = FACS binding, C4-2 cells, competition with 50 nM PSM-0183, category
[5] = pKD category for PSMA SPR activity assay
[6] = pIC50 category of FACS binding, C4-2 cells

| SMILES | Kd [1, 5] [µM] | IC50 [2, 6] [µM] | further results |
| --- | --- | --- | --- |
| CNCCCC[C@@H]1NC(=O)[C@@H](NC(=O)[C@H](Cc2ccc(O)c(I)c2)NC(=O)C(C)(C)NC(=O)[C@@H](NC(=O)CC2CCNCC2)[C@@H](C)O)CSSC[C@@H](C(=O)N[C@H](C(=O)N[C@H](C(N)=O)[C@@H](C)O)C(C)(C)C)NC(=O)[C@H](CC(N)=O)NC(=O)C(C)(C)NC(=O)[C@H](CCCNC(=N)NC)NC1=O [PSM-0192, H-Cmp-Thr-Aib-Miy-[Cys-Lys(Me)-Arg(Me)-Aib-Asn-Cys]-Tle-Thr-NH2] (X8-T[Aib][Tyr(3-I)]C[Lys(Me)][Arg(Me)][Aib]NC[Tle]T-NH2; disulfide 4-9) |  |  | Kd [1, 3]: > 0.501 µM; IC50 [2, 4]: > 3.16 µM |
| CNCCCC[C@@H]1NC(=O)[C@@H](NC(=O)[C@H](Cc2ccccn2)NC(=O)C(C)(C)NC(=O)[C@@H](NC(=O)CC2CCN(C(=O)CN3CCN(CC(=O)O)CCN(CC(=O)O)CCN(CC(=O)O)CC3)CC2)[C@@H](C)O)CSSC[C@@H](C(=O)N[C@H](C(N)=O)C(C)(C)C)NC(=O)[C@H](CC(N)=O)NC(=O)C(C)(C)NC(=O)[C@H](CCCNC(=N)NC)NC1=O [PSM-0409, DOTA-Cmp-Thr-Aib-Opa-[Cys-Lys(Me)-Arg(Me)-Aib-Asn-Cys]-Tle-NH2] ({DOTA}-[X1]T[Aib][2Pal]C[Lys(Me)][Arg(Me)][Aib]NC[Tle]-NH2; disulfide 5-10) | 0.126 to 0.501 | 0.2 to 1.26 |  |
| CC(=O)N[C@H](C(=O)NC(C)(C)C(=O)N[C@@H](Cc1ccccc1)C(=O)N[C@H]1CSSC[C@@H](C(=O)N[C@H](C(=O)N[C@@H](Cc2ccccc2)C(N)=O)C(C)(C)C)NC(=O)[C@H](CC(N)=O)NC(=O)C(C)(C)NC(=O)[C@H](CCCNC(=N)N)NC(=O)[C@H](CCCCN)NC1=O)[C@@H](C)O [PSM-0556, Ac-Thr-Aib-Phe-[Cys-Lys-Arg-Aib-Asn-Cys]-Tle-Phe-NH2] (Ac-T[Aib]FCKR[Aib]NC[Tle]F-NH2; disulfide 4-9) | < 0.0126 | < 0.2 |  |
| CC(=O)N[C@H](C(=O)NC(C)(C)C(=O)N[C@@H](Cc1ccccc1)C(=O)N[C@H]1CSSC[C@@H](C(=O)N[C@H](C(=O)N[C@H](C(=O)NCCCCCNC(=O)CN2CCN(CC(=O)O)CCN(CC(=O)O)CCN(CC(=O)O)CC2)[C@@H](C)O)C(C)(C)C)NC(=O)[C@H](CC(N)=O)NC(=O)C(C)(C)NC(=O)[C@H](CCCNC(=N)N)NC(=O)[C@H](CCCCN)NC1=O)[C@@H](C)O [PSM-0391, Ac-Thr-Aib-Phe-[Cys-Lys-Arg-Aib-Asn-Cys]-Tle-Thr-Ape-DOTA] (Ac-T[Aib]FCKR[Aib]NC[Tle]T-{NH(CH2)5NHDOTA}; disulfide 4-9) | < 0.0126 | < 0.2 |  |
| CC(=O)N[C@H](C(=O)NC(C)(C)C(=O)N[C@@H](Cc1ccccc1)C(=O)N[C@H]1CSSC[C@@H](C(=O)N[C@@H](C(=O)N[C@H](C(N)=O)[C@@H](C)O)C(C)(C)C)NC(=O)[C@H](CC(N)=O)NC(=O)C(C)(C)NC(=O)[C@H](CCCNC(=N)N)NC(=O)[C@H](CCCCN)NC1=O)[C@@H](C)O [PSM-0350, Ac-Thr-Aib-Phe-[Cys-Lys-Arg-Aib-Asn-Cys]-leu-Thr-NH2] (Ac-T[Aib]FCKR[Aib]NC[dTle]T-NH2; disulfide 4-9) |  |  | Kd ([1]; PSMA SPR assay, pKD category): 0.126 to 0.501 µM; IC50 ([2]; FACS binding, PSMA-expressing C4-2 cells, pIC50 category): 0.2 to 1.26 µM |
| CCCC[C@H](NC(=O)[C@@H]1CSSC[C@H](NC(=O)[C@H](Cc2ccccc2)NC(=O)[C@H](C)NC(=O)[C@@H](NC(C)=O)[C@@H](C)O)C(=O)N[C@@H](CCCCN)C(=O)N[C@@H](CCCNC(=N)N)C(=O)N[C@@H](CCC(=O)O)C(=O)N[C@@H](CC(N)=O)C(=O)N1)C(=O)N[C@@H](C(=O)N[C@H](CC(=O)O)C(N)=O)[C@H](C)O [PSM-0197, Ac-Thr-Ala-Phe-[Cys-Lys-Arg-Glu-Asn-Cys]-Nle-Thr-Asp-NH2] (Ac-TAFCKRENC[Nle][dT][dD]-NH2; disulfide 4-9) |  |  | Kd [1, 3]: 0.0126 to 0.126 µM; IC50 [2, 4]: < 0.2 µM |
| CC(=O)N[C@H](C(=O)NC(C)(C)C(=O)N[C@@H](Cc1ccccc1)C(=O)N[C@H]1CSSC[C@@H](C(=O)N[C@H](C(=O)N[C@H](C(N)=O)[C@@H](C)O)C(C)(C)C)NC(=O)[C@H](CC(=O)O)NC(=O)C(C)(C)NC(=O)[C@H](CCCNC(=N)N)NC(=O)[C@H](CCCCN)NC1=O)[C@@H](C)O [PSM-0478, Ac-Thr-Aib-Phe-[Cys-Lys-Arg-Aib-Asp-Cys]-Tle-Thr-NH2] (Ac-T[Aib]FCKR[Aib]DC[Tle]T-NH2; disulfide 4-9) | < 0.0126 | < 0.2 |  |
